The nature of series [1]: Drug absorption experiment in SD rats, intragastric administration (incl. absolute bioavailability). In kind it is in vivo, SD rats (Sprague Dawley rats). The settings on record: for F (absolute bioavailability): intragastric 10 mg/kg vs intravenous 2.5 mg/kg; for F (absolute bioavailability) / bioavailability: from AUC0-t after dosage calibration; for bioavailability: read-out: F (absolute bioavailability). As to the method:
The determination method for the absolute bioavailability of the intragastric administration of the crystal forms of the mesylate salt of the compound of formula (I) is as follows: • For intravenous administration: Healthy SD rats are randomly grouped. The tested substance is administered in a certain dosage D through the intravenous administration. The blood samples are collected through the retrobulbar venous plexus before the administration and 5 min, 15 min, 0.5 h, 1.0 h, 2.0 h, 4.0 h, 8.0 h, 12 h and 24 h after the administration, and separated to give plasmas. […] The tested substance is administered in a certain dosage D through the intragastric administration.
After dosage calibration, the absolute bioavailability F is calculated by the area under the drug concentration-time curve (AUC0-t). The calculation equation is as follows: F=(AUCintragastric×Dintravenous)/(AUCintravenous×Dintragastric)×100%.
For intragastric administration: 20 healthy (half male and half female) SD rats with 200-280 g body weight, provided by Shanghai Sippr-BK laboratory animal Co. Ltd., were assigned randomly to 5 groups.
After dosage calibration, the absolute bioavailability F was obtained by calculation of AUC0-t. The calculation equation was as follows: F=(AUCintragastric×Dintravenous)/(AUCintravenous×Dintragastric)×100%. The obtained absolute bioavailability F data are shown in the above table 2.

Series [2] can be described thus: Drug absorption experiment in SD rats, intravenous administration. The settings on record: for AUC(0-t) / Cmax / half-life: plasma. In kind it is in vivo, SD rats (Sprague Dawley rats). As to the method: The determination method for the absolute bioavailability of the intragastric administration of the crystal forms of the mesylate salt of the compound of formula (I) is as follows: • For intravenous administration: Healthy SD rats are randomly grouped. The tested substance is administered in a certain dosage D through the intravenous administration. The blood samples are collected through the retrobulbar venous plexus before the administration and 5 min, 15 min, 0.5 h, 1.0 h, 2.0 h, 4.0 h, 8.0 h, 12 h and 24 h after the administration, and separated to give plasmas. The concentration of the drug in plasma is determined with the liquid chromatography-tandem mass spectrometry method to give a drug concentration-time curve. • For intragastric administration: Healthy SD rats are randomly grouped. The tested substance is administered in a certain dosage D through the intragastric administration. The intravenous blood samples are collected through the rat's retrobulbar venous plexus before the administration and 0.5, 1.0, 2.0, 4.0, 6.0, 8.0, 10, 12 and 24 h after the administration, and separated to give plasmas. The concentration of the drug in plasma is determined with the liquid chromatography-tandem mass spectrometry method to give a drug concentration-time curve.
For intravenous administration: 20 healthy (half male and half female) SD rats with 200-280 g body weight, provided by Shanghai Sippr-BK laboratory animal Co. Ltd., were assigned randomly to 5 groups. […] 0.2 ml of the intravenous blood samples were collected through the rat's retrobulbar venous plexus before the administration and 5 min, 15 min, 0.5 h, 1.0 h, 2.0 h, 4.0 h, 8.0 h, 12 h and 24 h after the administration, and separated to give plasmas.
The concentration of the drug in plasma was determined with the liquid chromatography-tandem mass spectrometry method to give a drug concentration-time curve.
T1/2: elimination half-life; Cmax: maximum drug concentration in plasma; AUC0-t: area under drug concentration-time curve.

Series [3] is described as follows: Solubility test under different pH buffering solutions. In kind it is physicochemical. The following applies: for Solubility: 24 h; for solubilities compared with the compound of formula (I) of Example 1: solvent pH values 1.0, 4.5 and 6.8, conclusion in words. The protocol:
The solubilities of the crystal forms of the mesylate salt of the compound of formula (I) may be measured according to the following method: • Each substance is weighed in an appropriate amount and placed in a brown flask. Different solvents are added. The mixtures are ultrasonically treated for 20 seconds. After the mixtures are uniformly dispersed, the mixtures are shaked at 25° C., 200 rpm for 24 h, then removed, and separated by centrifugation at 12000 rpm for 10 mins. The supernatants are removed by suction and diluted to a certain fold with the corresponding solvent. Then, the concentrations of the resulting solutions are determined by HPLC and their pH values are measured.
The compound of formula (I) of Example 1, Form I of the mesylate salt of the compound of formula (I), and Form II of the mesylate salt of the compound of formula (I) were investigated for the solubilities under different pH buffering solutions.
Test method: Each substance was weighed in an appropriate amount and placed in a brown flask. Different solvents were added. The mixtures were ultrasonically treated for 20 seconds. After the mixtures were uniformly dispersed, the mixtures were shaked at 25° C., 200 rpm for 24 h, then removed, and separated by centrifugation at 12000 rpm for 10 mins. The supernatants were removed by suction and diluted to a certain folds with the corresponding solvent. Then, the concentrations of the resulting solutions were determined by HPLC and their pH values were measured.

Setting [4] is: intragastric, dosage 10 mg/kg, plasma.
Where [5] appears, read: Acetate buffering solution at pH = 4.5, 25° C.
The mark [6] stands for this setting: Phosphate buffering solution at pH = 6.8, 25° C.

SMILES strings stand for the structures. Values after ≈ are worked out from the molar mass of the structure shown. Structures can show the parent of a compound that is named as a salt. Where two headings read alike, the source gives them in different places.

The Cmax is the maximum level reached in the sampled fluid or tissue. The term Solubility denotes how much of the substance goes into solution per volume. Regarding `C=CC(=O)Nc1cc(Nc2nccc(-c3cn(C)c4ccccc34)n2)c(OCC(F)(F)F)nc1N(C)CCN(C)C` [Form II, Form II of the Mesylate Salt of N-{2-{[2-(dimethylamino)ethyl](methyl)amino}-6-(2,2,2-trifluoroethoxy)-5-{[4-(1-methyl-1H-indol-3-yl)pyrimidin-2-yl]amino}pyridin-3-yl}acrylamide], the “F (absolute bioavailability)” value in series [1] is recorded as 39.1%. Also, the AUC(0-t) turned out to be 566.3 ng·h/mL in series [1] (setting [4]) and 362.0 ng·h/mL in series [2] (dosage 2.5 mg/kg). The Cmax worked out at 36.7 ng/mL in series [1] (setting [4]) and 125.4 ng/mL in series [2] (dosage 2.5 mg/kg). In series [2] (dosage 2.5 mg/kg, elimination half-life), this molecule came in with a T1/2 of 4.83 h. Also, the Solubility in series [3] (0.1N HCl, 25° C.) is more than 100 mg/mL; in series [3] (setting [5]), 61.14 mg/mL; in series [3] (setting [6]) it was 0.02 mg/mL. Besides, in series [3], the “solubilities compared with the compound of formula (I) of Example 1” value is recorded as “remarkably better”.

For orientation: bioavailability means the share of a dose that reaches the circulation, judged against a reference dose that is usually intravenous. Usually half-life stands for the time needed for the level to fall by half in the phase considered. Regarding `C=CC(=O)Nc1cc(Nc2ncc(Cl)c(-c3cn(C)c4ccccc34)n2)c(OC(C)C)nc1N(C)CCN(C)C` [Comparative Example 2, reference compound], the bioavailability in series [1] (both sexes, Sprague-Dawley, rat, plasma, po, 10 mg/kg, intragastric 10 mg/kg vs intravenous 4.0 mg/kg) turned out to be 8.5%. Also, the half-life in series [2] (both sexes, Sprague-Dawley, rat, iv, 4 mg/kg, dosage 4.0 mg/kg, elimination half-life) is 1.71 h. Moreover, in series [2] (both sexes, Sprague-Dawley, rat, iv, 4 mg/kg, dosage 4.0 mg/kg, read-out: AUC0-t), the AUC(0-t) amounted to 811 ng·h/mL. The Cmax in series [2] (both sexes, Sprague-Dawley, rat, iv, 4 mg/kg, dosage 4.0 mg/kg, read-out: Cmax) came to 630 ng/mL.

For the molecule `C=CC(=O)Nc1cc(Nc2nccc(-c3cn(C)c4ccccc34)n2)c(OCC(F)(F)F)nc1N(C)CCN(C)C` [Form I, Form I of the Mesylate Salt of N-{2-{[2-(dimethylamino)ethyl](methyl)amino}-6-(2,2,2-trifluoroethoxy)-5-{[4-(1-methyl-1H-indol-3-yl)pyrimidin-2-yl]amino}pyridin-3-yl}acrylamide], the half-life was 7.98 h in series [1] (both sexes, Sprague-Dawley, rat, plasma, po, 10 mg/kg, intragastric, dosage 10 mg/kg, elimination half-life) and 4.73 h in series [2] (both sexes, Sprague-Dawley, rat, iv, 2.5 mg/kg, dosage 2.5 mg/kg, elimination half-life). The AUC(0-t) was 613 ng·h/mL in series [1] (both sexes, Sprague-Dawley, rat, plasma, po, 10 mg/kg, intragastric, dosage 10 mg/kg, plasma, read-out: AUC0-t) and 308 ng·h/mL in series [2] (both sexes, Sprague-Dawley, rat, iv, 2.5 mg/kg, dosage 2.5 mg/kg, read-out: AUC0-t). For the same molecule, the Cmax in series [1] (both sexes, Sprague-Dawley, rat, plasma, po, 10 mg/kg, intragastric, dosage 10 mg/kg, plasma, read-out: Cmax) was determined as 45.3 ng/mL; in series [2] (both sexes, Sprague-Dawley, rat, iv, 2.5 mg/kg, dosage 2.5 mg/kg, read-out: Cmax) it was 105 ng/mL. In addition, the “F (absolute bioavailability)” value in series [1] amounted to 49.8%. In addition, the Solubility in series [3] (0.1N HCl, 25° C.) was more than 100 mg/mL; in series [3] (setting [5]), 29.05 mg/mL; in series [3] (setting [6]), 0.02 mg/mL. Besides, the “solubilities compared with the compound of formula (I) of Example 1” value in series [3] is listed as “remarkably better”.

Take `C=CC(=O)Nc1cc(Nc2nccc(-c3cn(C)c4ccccc34)n2)c(OCC(F)(F)F)nc1N(C)CCN(C)C` [Example 1, N-{2-{[2-(dimethylamino)ethyl](methyl)amino}-6-(2,2,2-trifluoroethoxy)-5-{[4-(1-methyl-1H-indol-3-yl)pyrimidin-2-yl]amino}pyridin-3-yl}acrylamide]: the Solubility was more than 30 mg/mL in series [3] (0.1N HCl, 25° C.); 0.62 mg/mL (≈ 1090 µM) in series [3] (setting [5]); 0.0003 mg/mL (≈ 0.528 µM) in series [3] (setting [6]).

In the case of `C=CC(=O)Nc1cc(Nc2nccc(-c3cn(C)c4ccccc34)n2)c(OC(C)C)nc1N(C)CCN(C)C` [Comparative Example 1, reference compound], in series [1] (both sexes, Sprague-Dawley, rat, plasma, po, 6 mg/kg, intragastric 6 mg/kg vs intravenous 3.0 mg/kg), the bioavailability stood at 8.9%. In series [2] (both sexes, Sprague-Dawley, rat, iv, 3 mg/kg, dosage 3.0 mg/kg, elimination half-life), this molecule had a half-life of 2.72 h. Also, the AUC(0-t) in series [2] (both sexes, Sprague-Dawley, rat, iv, 3 mg/kg, dosage 3.0 mg/kg, read-out: AUC0-t) was found to be 438 ng·h/mL. Besides, in series [2] (both sexes, Sprague-Dawley, rat, iv, 3 mg/kg, dosage 3.0 mg/kg, read-out: Cmax), the peak concentration (Cmax) was 328 ng/mL.

Source of the values: US10550101B2, “Crystalline forms of mesylate salt of pyridinyl amino pyrimidine derivative, preparation methods therefor, and applications thereof” (SHANGHAI ALLIST PHARMACEUTICAL AND MEDICAL TECHNOLOGY …, priority 2016, dated 2020).
